Test results from US20210060125A1, “METHOD AND USE OF PnPP-19 FOR PREVENTING AND TREATING EYE DISEASES” (priority 2019, published 2021).
“Also recorded” adds a separate entry of the source.

Columns and labels:
Glaucomatous dogs = details: cited from earlier work
[1] = tested on: Hen's egg chorioallantoic membranes (HET-CAM); assay: HET-CAM ocular irritation model; set-up: key to Irritability classification: NI = Non- irritant; SI = severely irritant; details: for OII ± SD / OII ± SD (mean cumulative score): mean ± S.D., n = 6
Description: Hen's egg—chorioallantoic membranes (HET-CAM) were used to assess anti-irritant properties of different concentrations of PnPP-19. PnPP-19 was dissolved in 300 μL of saline in order to achieve the concentration of 40 μg, 80 μg, 160 μg, 320 μg, in 20 μL (the volume of one eye drop). Sodium chloride 0.9% (NaCl) was used as negative control and sodium hydroxide 0.1 M (NaOH) as a positive control.
The reactions were classified according to a semi-quantitatively analysis, on a scale from 0 (no reaction) to 3 (strong reaction). The ocular irritation index (OII) was then calculated by the following expression: […]
where h is time (in seconds) from the beginning of bleeding; l lysis, and c coagulation. The following classification was used: OII≤0.9: […]; 0.9<OII≤4.9: moderately irritant; 4.9<OII≤8.9: irritant; 8.9<OII≤21: severely irritant.

healthy subjects = assay: Phase 1 clinical trial, safety, tolerability and IOP; assay type: in vivo, human
Description: Twelve healthy subjects, 6 males and 6 females, were selected to evaluate the safety and tolerability of PnPP-19. PnPP-19 were applied as one eye drop per day (with 250 μg of peptide in 50 μL saline (0.5%)) for 7 days, in one eye, while vehicle (the formulation without the peptide) was applied in the contralateral eye. The eye were randomized in a double-blind way to each intervention.
The safety was analyzed by an ophthalmologist thought a slit lamp in conjunction with a biomiscrscope to examine the anterior and posterior segment of the eye. This procedure was performed in both eyes, in each subject, in the days 1, 2, 3, 4 and 7 of the treatment.
The tolerability was analyzed thought a daily tolerability questionnaire. […] One patient reported mild headache, that last minutes.
IOP was measured with a non-contact tonometer before and 1,2,4 6 and 24 hours after the instillations of PnPP-19 or vehicle.

normotensive Wistar rats = assay: In vivo single-dose acute toxicology, topical eye drops; set-up: species or system rat; details: single topical dose 40, 80, 160 μg in 20 μL
Description: Single-dose topical application of PnPP-19 was dissolved in 300 of saline at the dose of 40, 80 and 160 μg, in 20 μL of saline, in the form of eye drops, was evaluated in normotensive Wistar rats (150-200 g), n=4 rats per dose group. Fundoscopy and electroretinography were performed at days 0, 1, 7 and 15 after PnPP-19 administration. At day 15, eye tissue was collected to histopathological analysis. Day 0 was considered as a control time point for any dose to evaluate for observed differences.

[2] = tested on: glaucomatous male Wistar rats; assay type: in vivo, rat; details: 72 hours after PnPP-19 instillation
Description: The effectiveness of the PnPP-19 was first evaluated by measuring the changes in IOP of glaucomatous male Wistar rats (180-220 g, 7 to 10 weeks old, n=6). Glaucoma was induced in the right eye by the injection of 30 μL hyaluronic acid (HA) (10 mg/mL) into the anterior chamber through the clear cornea once per week for 3 weeks on the same calendar day and at the same time. Evaluation of the IOP was performed using a TonoPen (Tono-PenVet, Reichert). To perform the measurements, unsedated animals were topically anesthetized by the instillation of 0.5% proxymetacaine hydrochloride. Three IOP readings (with SE less than 5%) were taken for each eye. The average of these three readings was considered the corresponding value of the IOP. Electroretinogram (ERG) was recorded before and after the glaucoma induction. Eyes were enucleated and corneas and retinas were prepared for histology. The groups of treatment were defined as Healthy or non-glaucomatous—left eye, where HA was not applied; Glaucomatous, Non-treated—right eye, where HA was applied, treated with control (vehicle, saline); […]
The effects of PnPP-19 on rat's vision at the end of the HA glaucomatous model was analyzed by ERG to evaluate if the peptide impacts the visual acuity. […]

[3] = tested on: male normotensive Wistar rat eye; assay: Eye permeation and diffusion of fluorescence-labeled PnPP-19; assay type: in vivo; details: 80 μg/20 μl eye drop in saline; 3 hours
Description: Fluorescence-labeled PnPP-19 (FITC) was applied topically in form of eye drops (peptide dissolved in saline) in a dose of 80 μg/20 μl in the male normotensive Wistar rat eye. Vehicle (saline) was applied in the contralateral eye to be used as control. After 3 hours the eyes were enucleated and prepared for histological analysis using fluorescence microscope APOTOME.2 ZEISS.

[4] = tested on: male Wistar rats with retinal ischemia; assay: Ischemic retina model, study 2 (pre-treatment or prevention); assay type: in vivo, rat; details: pre-treatment; 3 cd.s.m−2, scotopic; n=6
Description: The potential neuroprotective effect of PnPP-19 in the retina was investigated with an animal model of ischemic injury. For this purpose, male Wistar rats were treated with PnPP-19 either before or after induction of ischemia (80 μg in 20 μl (one eye drop) once a day administration for seven days).
Male Wistar rats (180-200 g) were anesthetized intraperitoneally with ketamine hydrochloride 90 mg/kg and xylazine hydrochloride 10.0 mg/kg and the retinas were made ischemic according to the protocols of Hughes (HUGHES, W. F. Quantitation of ischemic damage in the rat retina. Exp Eye Res, 53(5): 573-82, 1991), and of Louzada-Junior et al. (Louzada-Junior, P., Dias, J. J., Santos, W. F., Lachat, J. J., Bradford, H. F., Coutinho-Netto, J. Glutamate Release in Experimental Ischaemia of the Retina: An Approach Using Microdialysis. J Neurochem, 59(1):358-63, 1992). IOP was elevated by cannulating the eye anterior chamber, with a sterile 27-gauge needle attached to a manometer/pump connected to an air reservoir (HUGHES, W. F. Quantitation of ischemic damage in the rat retina. Exp Eye Res, 53(5): 573-82, 1991) elevating the IOP to 155 mmHg for 40 min evoking ischemia (indicated by whitening of the eye fundus as blood flow is interrupted). […]
We measured different layer thicknesses to quantify the degree of cell loss to measure the ischemic damage in the rat retina. […]

[5] = tested on: HA-induced glaucoma in rats; details: cited from earlier work
Human glaucoma = details: cited from earlier work
[6] = tested on: ocular hypertensive rabbits; details: hypertonic saline into the vitreous body; cited from earlier work
[7] = all concentrations tested (40-320 μg in 20 μL)
[8] = daily tolerability questionnaire, n=12

In the case of Latanoprost, the “reduction in IOP” value (Glaucomatous dogs) is given as 27%.
In the case of “Ac-GERRQYFWIAWYKLANSKK-NH2 (N-terminus and C-terminus assumed) [PnPP-19, Gly Glu Arg Arg Gln Tyr Phe Trp Ile Ala Trp Tyr Lys Leu Ala Asn Ser Lys Lys]”, the Irritability classification ([1]; 40 μg in 20 μL saline) is reported as “NI”, the “OII ± SD” value ([1]; 40 μg in 20 μL saline) is reported as at most 0.9 ± 0.0 and the Irritability classification ([1]; 80 μg in 20 μL saline) is reported as “NI”. For the same molecule, the “OII ± SD” value ([1]; 80 μg in 20 μL saline) was at most 0.9 ± 0.0, the Irritability classification ([1]; 160 μg in 20 μL saline) was “NI” and the “OII ± SD” value ([1]; 160 μg in 20 μL saline) was at most 0.9 ± 0.0. For the same molecule, the Irritability classification ([1]; 320 μg in 20 μL saline) was “NI”, the “OII ± SD” value ([1]; 320 μg in 20 μL saline) was at most 0.9 ± 0.0 and the “irritancy ranking in words” value [1, 7] was “non-irritant”. The “mean cumulative scores (OII)” value [1, 7] was at most 0.9, the “signs of vascular response” value ([1]; all concentrations tested, observed up to 5 min) was “did not show any signs of vascular response” and the “Safety, slit lamp examination of anterior and posterior segment” value (healthy subjects; 250 μg in 50 μL saline (0.5%), one drop per day for 7 days, n=12) was “no safety finding”. The “Blood pressure, heart rate, weight, physical examination, electrocardiogram” value (healthy subjects; 250 μg in 50 μL, one drop per day for 7 days, n=12) was “no difference in blood pressure, heart rate, weight, physical examination and electrocardiogram results”, the “Relation of reported adverse events to treatment (investigator)” value (healthy subjects; daily tolerability questionnaire, four events reported) was “none of those adverse events were related to PnPP-19” and the “Eye burning after instillation” value (healthy subjects; [8]) was “in one patient”. For the same molecule, the “Puritis in the eye after instillation” value (healthy subjects; [8]) was “one patient”, the “Histological morphology of cornea and retina” value (normotensive Wistar rats; day 15, n=4) was “keeps the same morphology; also recorded: does not alter the retinal morphology; also recorded: does not alter the cornea morphology” and the “Fundoscopy vs day 0” value (normotensive Wistar rats; days 1, 7, 15, n=4 per dose) was “No difference was observed; also recorded: does not affect retinal vessels”. For the same molecule, the “Electroretinography a and b wave vs day 0” value (normotensive Wistar rats; up to day 15) was “absence of retinal nerve damage”, the “Dark-adapted ERG vs glaucomatous non-treated group” value [2] was “no difference” and the “Fluorescence in cornea, vitreous body and retina vs vehicle” value [3] was “permeates the cornea and reaches the retina”. For the same molecule, the ERG b-amp/a-amp ratio [4] was “an increasing tendency in b/a ratio; also recorded: prevents vision loss”.
In the case of `CC(C)(C)NC[C@H](O)COc1nsnc1N1CCOCC1` [Timolol], the “Average IOP reduction (%)” value [5] is listed as 25.3% and the “Average IOP reduction (%)” value (Human glaucoma) is listed as 18%.
In the case of `[Na+].[OH-]` [0.1M NaOH, sodium hydroxide, reference compound], the Irritability classification ([1]; 0.1 M, positive control) is reported as “SI”, the “irritancy ranking in words” value ([1]; 0.1 M, positive control) is reported as “severely irritant (8.9<OII≤21: severely irritant)” and the “OII ± SD (mean cumulative score)” value ([1]; 0.1 M, positive control) is reported as 21.11 ± 0.32. The “OII ± SD (mean cumulative score)” value ([1]; 0.1 M, positive control, listed as 0.1 M NaOH) was 21.11±0.32.
For `O=C(CCC/C=C\C[C@@H]1[C@@H](CC[C@@H](O)CCc2ccccc2)[C@H](O)C[C@@H]1O)OCCCCO[N+](=O)[O-]` [Latanoprostene Bunod], the “effect on ocular hypertension” value [6] is listed as “significantly blunted”, the “reduction in IOP” value (Glaucomatous dogs) is listed as 44% and the “Average IOP reduction (%)” value (Human glaucoma) is listed as 31%.
In the case of `CC(C)OC(=O)CCC/C=C\C[C@@H]1[C@@H](CC[C@@H](O)CCc2ccccc2)[C@H](O)C[C@@H]1O` [Latanoprost], the “Average IOP reduction (%)” value [5] is listed as 28.1%, the “effect on ocular hypertension” value [6] is listed as “not” and the “Average IOP reduction (%)” value (Human glaucoma) is listed as 13.1%.
